Like-named read-outs stand apart in the source and are kept apart here.
Legend:
[1] = tested on: 786-O; assay: Cell viability (CellTiter-Glo) of 786-O; assay type: cell-based; conditions: Homo sapiens, 786-0, 72 h, 3 days of culture
Description: (§1) Cell viability was detected using the Promega CellTiter-Glo kit, the kit reflected cell viability by directly measuring intracellular ATP content. In the experiment, the IC50 value of different compounds on different tumor cell lines was detected to determine cell lines that were sensitive or insensitive to different compounds.
(§2) Tumor cells were cultured in 10% FBS-containing medium (+p/s), and incubated for 3 h or the following day, then the gradient diluted compound was added. After 3 days of culture, the relevant IC50 (50% inhibiting concentration) was measured. The name, source and culture conditions of each tumor cell line were as follows:
Cell line 786-0 (ATCC, No. CRL-1932) was cultured in 10% fetal bovine serum-containing RPMI1640 medium (+P/S).

[2] = Stability in human liver microsome; assay type: in vitro ADME; conditions: liver microsomes, pH 7.4, 1.5 μM drug solution, NADPH, 37° C., read-out: Human T1/2
Description: Vortexing for 10 min, the sample was centrifuged with 5594×g for 15 min in centrifuger (Thermo Multifuge×3R). • 10) taking 50 μL supernatant from the centrifuged sample, transferred to 96 well sample plate contain 50 μL water, mixed, and the sample was analyzed using LC-MS/MS.

[3] = tested on: GB-1; assay: Cell viability (CellTiter-Glo) of GB-1; assay type: cell-based; conditions: Homo sapiens, 72 h; GB-1, 3 days of culture
Description: as §1, §2
Cell line GB-1 (JCRB, No. IF050489) was cultured in 10% fetal bovine serum-containing DMEM medium (+P/S).

[4] = tested on: NCI-H82 cell; assay: Cell viability (Promega CellTiter-Glo) of NCI-H82 cell; assay type: cell-based; conditions: Homo sapiens
Description: Cell viability was detected using the Promega CellTiter-Glo kit, the kit reflected cell viability by directly measuring intracellular ATP content. Small cell lung cancer cell NCI-H82 (ATCC, No. HTB-175) was cultured in 10% fetal bovine serum-containing RPMI1640 medium (+P/S).
Cell viability was detected using the Promega CellTiter-Glo kit, the kit reflected cell viability by directly measuring intracellular ATP content.
Daoy cell was cultured in 10% fetal bovine serum-containing DMEM medium (+P/S), and NCI-H82 cell was cultured in 10% fetal bovine serum-containing RPMI1640 medium (+P/S).
as §1, §2
Cell line NCI-H82 (ATCC, No. HTB-175) was cultured in 10% fetal bovine serum-containing RPMI1640 medium (+P/S).

[5] = tested on: G-401; assay: Cell viability (CellTiter-Glo) of G-401; assay type: cell-based; conditions: Homo sapiens
Description: (§3) Cell viability was detected using the Promega CellTiter-Glo kit, the kit reflected cell viability by directly measuring intracellular ATP content. Different cancer cells was cultured in medium, the 50% inhibiting concentration (IC50) of compound AB24852 on cancer cells was determined using Promega CellTiter-Glo kit. The name, source and culture conditions of each tumor cell line were as follows:
Cell line G-401 (ATCC, No. CRL-1441) was cultured in 10% fetal bovine serum-containing McCoy's 5a medium (+P/S).
as §1
as §2, with “follows: […]” for “follows:”

[6] = tested on: CFPAC-1; assay: Cell viability (CellTiter-Glo) of CFPAC-1; assay type: cell-based; conditions: Homo sapiens, 72 h; CFPAC-1, 3 days of culture
Description: as §1, §2
Cell line CFPAC-1 (ATCC, No. CRL-1918) was cultured in 10% fetal bovine serum-containing IMDM medium (+P/S).

[7] = tested on: SF-126; assay: Cell viability (CellTiter-Glo) of SF-126; assay type: cell-based; conditions: Homo sapiens, 72 h; SF-126, 3 days of culture
Description: as §1
as §2, with “follows: […]” for “follows:”

[8] = tested on: MDA-MB-453; assay: Cell viability (CellTiter-Glo) of MDA-MB-453; assay type: cell-based; conditions: Homo sapiens
Description: as §3
Cell line MDA-MB-453 (ATCC, No. HTB-131) was cultured in 10% fetal bovine serum-containing Leibovitz's L-15 medium (+P/S).
as §1
as §2, with “follows: […]” for “follows:”

[9] = tested on: SW48; assay: Cell viability (CellTiter-Glo) of SW48; assay type: cell-based; conditions: Homo sapiens
Description: as §3
Cell line SW48 (ATCC, No. CCL-231) was cultured in 10% fetal bovine serum-containing Leibovitz's L-15 medium (+P/S).
as §1
as §2, with “follows: […]” for “follows:”

[10] = tested on: OCI-AML-4; assay: Cell viability (CellTiter-Glo) of OCI-AML-4; assay type: cell-based; conditions: OCI-AML-4, leukemia
Description: as §3
Cell line OCI-AML-4 (DSMZ, No. ACC-729) was cultured in alpha-MEM medium containing 20% fetal bovine serum and 20% volume fraction of 5637 cell line adjusted medium (+P/S).

[11] = tested on: NCI-H1048; assay: Cell viability (CellTiter-Glo) of NCI-H1048; assay type: cell-based; conditions: Homo sapiens; NCI-H1048, lung cancer
Description: as §3
Cell line NCI-H1048 (ATCC, No. CRL-5853) was cultured in 5% fetal bovine serum-containing HITES medium (+P/S).

[12] = tested on: SU-DHL-2; assay: Cell viability (CellTiter-Glo) of SU-DHL-2; assay type: cell-based; conditions: Homo sapiens; SU-DHL-2, lymphoma
Description: as §3
Cell line SU-DHL-2 (ATCC, No. CRL-2956) was cultured in 10% fetal bovine serum-containing RPMI1640 medium (+P/S).

[13] = tested on: SNU-398; assay: Cell viability (CellTiter-Glo) of SNU-398; assay type: cell-based; conditions: Homo sapiens; SNU-398, liver cancer
Description: as §3
Cell line SNU-398 (ATCC, number CRL-2233) was cultured in 10% fetal bovine serum-containing RPMI1640 medium (+P/S).

[14] = tested on: MIA PaCa-2; assay: Cell viability (CellTiter-Glo) of MIA PaCa-2; assay type: cell-based; conditions: Homo sapiens; MIA PaCa-2, pancreatic cancer
Description: as §3
Cell line MIA PaCa-2 (ATCC, No. CRL-1420) was cultured in 10% fetal bovine serum-containing DMEM medium (+P/S).

[15] = tested on: 22RV1; assay: Cell viability (CellTiter-Glo) of 22RV1; assay type: cell-based; conditions: Homo sapiens; 22RV1, prostatic cancer
Description: as §3
Cell line 22RV1 (ATCC, No. CRL-2505) was cultured in 10% fetal bovine serum-containing RPMI1640 medium (+P/S).

[16] = tested on: A-375; assay: Cell viability (CellTiter-Glo) of A-375; assay type: cell-based; conditions: Homo sapiens; A-375, melanoma
Description: as §3
Cell line A-375 (ATCC, No. CRL-1619) was cultured in 10% fetal bovine serum-containing DMEM medium (+P/S).

[17] = tested on: mitochondria permeability transition pore; assay: Mitochondria membrane potential difference by TMRM in NCI-H82 cell; assay type: cell-based, human; conditions: H2O2 +, CsA none
[18] = tested on: mitochondria permeability transition pore; assay: Mitochondria membrane potential difference by TMRM in Daoy cell; assay type: cell-based, human; conditions: H2O2 +, CsA none
[19] = 72 h, NCI-H82, 3 days of culture, Table 5, read-out: IC50 NCI-H82
[20] = NCI-H82 cell, Table 1, read-out: IC50
[21] = 72 h, G-401, 3 days of culture, Table 5, read-out: IC50 G-401
[22] = 72 h, MDA-MB-453, 3 days of culture, Table 5, read-out: IC50 MDA-MB-453
[23] = 72 h, SW48, 3 days of culture, Table 5, read-out: IC50 SW48

Row | SMILES | IC50 [1] | half-life at 1 µM [2] | IC50 [3] | IC50 [4, 19] | IC50 [4, 20] | IC50 [5, 21] | IC50 [6] | IC50 [7] | IC50 [8, 22] | IC50 [9, 23] | also measured
1 | O=C1c2ccc(Cl)cc2CCC1[n+]1ccc(NCc2ccccc2)cc1 (centres unmarked) [AB24841A] | > 50 µM | 20.4 h | 16.4 µM | 0.59 µM | 0.59 µM | 0.63 µM | 35.7 µM | 10.8 µM | 0.62 µM | 0.8 µM | –
2 | O=C(C[n+]1ccc(NCc2ccccc2)cc1)c1cccc([N+](=O)[O-])c1 [AB24852] | > 50 µM | 1.78 h | > 50 µM | 1.46 µM | 1.46 µM | 1.02 µM | > 50 µM | > 50 µM | 0.22 µM | 0.72 µM | IC50 ([5]; G-401, renal carcinoma, Table 2, read-out: IC50): 1 µM; IC50 [10]: 0.8 µM; IC50 [11]: 1.1 µM; IC50 [12]: 0.3 µM; IC50 [13]: 1.7 µM; IC50 [14]: 0.7 µM; IC50 ([8]; MDA-MB-453, breast cancer, Table 2, read-out: IC50): 0.2 µM; IC50 [15]: 2.3 µM; IC50 ([9]; SW48, intestine cancer, Table 2, read-out: IC50): 0.7 µM; IC50 [16]: 1.3 µM
3 | OO [Compound H2O2] | – | – | – | – | – | – | – | – | – | – | Relative TMRM signal intensity, mean value [17]: 119%; Relative TMRM signal intensity, mean value [18]: 82%
